Data as given in patent US9777015B2, “Useful thiophene derivatives in the treatment of diabetes” (METABRAIN RESEARCH, priority 2012, dated 2017).
Where two headings read alike, the source gives them in different places.

Columns and labels:
[1] = system: hepatocytes isolated from Wistar rat liver; test: Test of inhibition of hepatic production of glucose (isolated hepatocytes, 3 h or 20 h incubation); assay type: cell-based; conditions: Rattus norvegicus, Hepatocyte, hepatic glucose production, rat hepatocytes; for activity at 50 µM: compound at 50 μM, read-out: HGP % of ctrl @ 50 μM; for activity at 100 µM: compound at 100 μM, read-out: HGP % of ctrl @ 100 μM
Procedure: The hepatocytes are isolated from Wistar rat liver having fasted for 24 h after perfusion of collagenase in the portal vein. The freshly isolated hepatocytes are sown in 6-well plates coated with collagen and containing an adhesion medium (Williams Medium). After adhesion, the medium is replaced with RPMI 1640 medium without any glucose, containing hydrocortisone (7.10^−5M) for a duration from 16 to 18 h. The next day, the glucose hepatic production test is conducted in a Krebs medium for 3 h. The basal conditions are cells incubated with only Krebs, the stimulated conditions are the cells placed in Krebs+lactate+pyruvate, the produced conditions are the cells exposed to chemical compounds in a Krebs/lactate/pyruvate medium. In the case when the compounds are dissolved in DMSO, all the conditions of the tests are met in the presence of a final concentration of 0.1% DMSO. The positive control of the test is the mercaptopicolinate known for its inhibitory action on hepatic production of glucose via the phosphoenolpyruvate carboxykinase. For short term treatments, the compounds are incubated for 3 h. For long term treatments, the compounds are incubated for 20 h at the moment when the hepatocytes are cultivated in RPMI and then added during the hepatic production test for 3 h. At the end of the 3 hours of incubation, the supernatant is recovered for measurement of glucose with a colorimetric method using glucose oxidase. The cells are lysed with a 0.1% NaOH aqueous solution in order to measure the amount of protein with the Lowry method. The results are expressed in mmols of glucose per mg of protein.

[2] = system: INS-1 cells; test: Stimulation test of insulin secretion by INS-1 cells; assay type: cell-based; conditions: Rattus norvegicus, 1 h incubation, 3.5 mM glucose; for activity at 10 µM: INS1, compound at 10 μM, read-out: INS-1 % of ctrl @ 10 μM; for activity at 50 µM: INS1, compound at 50 μM, read-out: INS-1 % of ctrl @ 50 μM
Procedure: The different compounds were tested on an INS-1 beta-pancreatic line in order to evaluate their capability of potentializing the insulin secretion in response to glucose. Very briefly, the cells are cultivated in a culture medium, RPMI 1640 with 10 mM glucose containing 1 mM of sodium pyruvate, 50 μM of 2-mercaptoethanol, 2 mM of glutamine, 10 mM of HEPES, 100 IU/mL of penicillin, 100 μg/mL of streptomycin and 10% of inactivated fetal calf serum, as described by Asfari et al.. For the insulin secretion test, the INS-1 cells are sown and cultivated in 96-well plates. After 3 days of cultivation at 37° C. in a humid atmosphere (95% air/5% CO2), the medium is removed and the cells are incubated for 16 h in a medium containing 5 mM of glucose and 1% of inactivated fetal calf serum. On the day of the test, the cells are washed with a Krebs buffer (pH 7.4) containing 0.1% of bovine albumin and then pre-incubated for 30 min at 37° C. in this same buffer containing 2.8 mM of glucose. Finally, the cells are again washed with Krebs buffer and then incubated for 1 h in the buffer of the secretion test (Krebs, pH 7.4 containing 0.1% of bovine albumin and 3.5 mM of glucose and molecules to be evaluated). At the end of the test, the cell supernatant is recovered in order to measure therein the secreted insulin, by means of an ELISA kit using a rat anti-insulin antibody (ELISA Alpco Cat no. 80-INSRTH-E10). Each condition is tested in triplicate. The 3.5 mM glucose, the 10^−7M GLP-1 and the Forskoline 10^−7/IBMX 10^−5M mixtures are used as positive controls of the test. A compound stimulates the secretion of insulin if this factor is greater than or equal to 130% of the control for a given glucose dose.

Row | Structure (SMILES) | activity at 50 µM ([1]; 3 h, 3 h incubation) [%] | activity at 100 µM ([1]; 3 h, 3 h incubation) [%] | activity at 10 µM [2] [%] | activity at 50 µM [2] [%] | activity at 50 µM ([1]; 20 h, 20 h incubation) [%] | activity at 100 µM ([1]; 20 h, 20 h incubation) [%]
1 | COC(=O)Cc1cc(C(=O)c2ccco2)sc1-c1ccccc1 [compound 3, methyl 2-(5-(furan-2-carbonyl)-2-phenylthiophen-3-yl)acetate] | 82 | 74 | 152 | 318 |  | 
2 | CCOC(=O)Cc1cc(C(=O)C2CCCCC2)sc1-c1ccc(Cl)cc1 [compound 14, ethyl 2-(2-(4-chlorophenyl)-5-(cyclohexanecarbonyl)thiophen-3-yl)acetate] | 91 | 73 | 152 | 165 |  | 
3 | CCOC(=O)Cc1cc(C(=O)c2ccccc2)sc1-c1ccc(Cl)cc1 [compound 15, ethyl 2-(5-benzoyl-2-(4-chloro-phenyl)thiophen-3-yl)acetate] |  |  | 150 | 160 | 63 | 32
4 | CCOC(=O)Cc1cc(C(=O)c2ccco2)sc1-c1ccc(OC)cc1 [compound 22, ethyl 2-(5-(furan-2-carbonyl)-2-(4-methoxyphenyl)thiophen-3-yl)acetate] |  |  | 152 | 207 |  | 
5 | CCOC(=O)Cc1cc(C(=O)c2ccoc2)sc1-c1ccc(OC)cc1 [compound 28, ethyl 2-(5-(furan-3-carbonyl)-2-(4-methoxyphenyl)thiophen-3-yl)acetate] |  |  | 136 | 138 |  | 
6 | CCOC(=O)Cc1cc(C(=O)c2cccc(OC)c2)sc1-c1ccc(OC)cc1 [compound 30, ethyl 2-(5-(3-methoxybenzoyl)-2-(4-methoxyphenyl)thiophen-3-yl)acetate] |  |  | 157 |  |  | 
7 | CCOC(=O)Cc1cc(C(=O)c2cscn2)sc1-c1ccc(OC)cc1 [compound 33, ethyl 2-(2-(4-methoxyphenyl)-5-(thiazole-4-carbonyl)thiophen-3-yl)acetate] |  |  | 199 | 280 |  | 
8 | CCOC(=O)Cc1cc(C(=O)c2ccccc2)sc1-c1ccc(OC)cc1 [compound 35, ethyl 2-(5-benzoyl-2-(4-methoxy-phenyl)thiophen-3-yl)acetate] |  |  | 128 | 148 | 100 | 70
9 | CCOC(=O)Cc1cc(C(=O)CCCCl)sc1-c1ccc(OC)cc1 [compound 37, ethyl 2-(5-(4-chlorobutanoyl)-2-(4-methoxyphenyl)thiophen-3-yl)acetate] |  |  | 157 | 107 |  | 
10 | CC(C)OC(=O)Cc1cc(C(=O)c2ccco2)sc1-c1ccc(Cl)c(Cl)c1 [compound 39, isopropyl 2-(2-(3,4-dichlorophenyl)-5-(furan-2-carbonyl)thiophen-3-yl)acetate] |  |  | 143 | 389 |  | 
11 | CC(C)OC(=O)Cc1cc(C(=O)c2ccco2)sc1-c1ccc(Cl)cc1 [compound 44, isopropyl 2-(2-(4-chlorophenyl)-5-(furan-2-carbonyl)thiophen-3-yl)acetate] | 83 | 69 | 180 | 223 | 71 | 61
12 | O=C(O)Cc1cc(C(=O)C2CCCCC2)sc1-c1ccccc1 [compound 52, 2-(5-(cyclohexanecarbonyl)-2-phenylthiophen-3-yl)acetic acid] | 61 | 44 | 127 | 140 |  | 
13 | COc1ccc(C(=O)c2cc(CC(=O)OC(C)(C)C)c(-c3ccc(Cl)cc3)s2)cc1 [compound 84, tert-butyl 2-(2-(4-chlorophenyl)-5-(4-methoxybenzoyl)thiophen-3-yl)acetate] |  |  | 139 | 153 | 85 | 40
14 | COc1ccc(-c2sc(C(=O)c3cccc(OC)c3)cc2CC(=O)OCC2O[C@H]3OC(C)(C)O[C@H]3[C@H]3OC(C)(C)O[C@@H]23)cc1 (stereo partly drawn) [compound 85, ((3aS,5aS,8aS,8bS)-2,2,7,7-tetramethyltetrahydro-3aH-bis([1,3]dioxolo)[4,5-b:4′,5′-d]pyran-5-yl)methyl 2-(5-(3-methoxy-benzoyl)-2-(4-methoxy-phenyl)thiophen-3-yl)acetate] |  |  | 146 |  |  | 
15 | COc1ccc(C(=O)c2cc(CC(=O)NCCN(C)C)c(-c3ccc(Cl)cc3)s2)cc1 [compound 89, 2-(2-(4-chlorophenyl)-5-(4-methoxybenzoyl)thiophen-3-yl)-N-(2-(dimethylamino)ethyl)acetamide] |  |  | 171 |  |  | 
16 | O=C(c1ccco1)c1cc(CC(=O)N2CCOCC2)c(-c2ccc(Cl)cc2)s1 [compound 91, 2-(2-(4-chlorophenyl)-5-(furan-2-carbonyl)thiophen-3-yl)-1-morpholino ethanone] |  |  | 184 | 152 |  | 
17 | COc1ccc(C(=O)c2cc(CC(=O)N3CCN(C)CC3)c(-c3ccc(Cl)cc3)s2)cc1 [compound 93, 2-(2-(4-chlorophenyl)-5-(4-methoxybenzoyl)thiophen-3-yl)-1-(4-methylpiperazin-1-yl)ethanone] |  |  | 149 |  |  | 
18 | CN(C)CCNC(=O)Cc1cc(C(=O)c2ccco2)sc1-c1ccc(Cl)cc1 [compound 95, 2-(2-(4-chlorophenyl)-5-(furan-2-carbonyl)thiophen-3-yl)-N-(2-(dimethylamino)ethyl)acetamide] |  |  | 144 | 147 |  | 
19 | COc1ccc(C(=O)c2cc(CC(=O)NCCO)c(-c3ccc(Cl)cc3)s2)cc1 [compound 96, 2-(2-(4-chlorophenyl)-5-(4-methoxybenzoyl)thiophen-3-yl)-N-(2-hydroxyethyl)acetamide] |  |  | 177 |  |  | 
20 | CCOC(=O)Cc1cc(C(=O)N2CCOCC2)sc1-c1ccc(Cl)cc1 [compound 114, ethyl 2-(2-(4-chlorophenyl)-5-(morpholine-4-carbonyl)thiophen-3-yl)acetate] |  |  | 150 |  |  | 
21 | COCC(C(=O)OC(C)C)c1cc(C(=O)c2ccc(OC)cc2)sc1-c1ccc(Cl)cc1 (centres unmarked) [compound 125] |  |  | 154 | 126 |  | 
22 | CCOC(=O)Cc1cc(C(=O)c2ccco2)sc1-c1ccc(C#N)cc1 [compound 139, ethyl 2-(2-(4-cyanophenyl)-5-(furan-2-carbonyl)thiophen-3-yl)acetate] |  |  | 183 | 247 |  | 
23 | N#Cc1ccc(-c2sc(C(=O)c3ccco3)cc2CC(=O)O)cc1 [compound 140, 2-(2-(4-cyanophenyl)-5-(furan-2-carbonyl)thiophen-3-yl)acetic acid] |  |  | 123 | 188 |  | 
24 | CN(C)CCNC(=O)Cc1cc(C(=O)c2ccco2)sc1-c1cccc(C#N)c1 [compound 142, 2-(2-(3-cyanophenyl)-5-(furan-2-carbonyl)thiophen-3-yl)-N-(2-(dimethylamino)ethyl)acetamide] |  |  | 117 | 175 |  | 
25 | N#CCc1cc(C(=O)c2ccco2)sc1-c1ccc(F)cc1 [compound 145, 2-(2-(4-fluorophenyl)-5-(furan-2-carbonyl)thiophen-3-yl)acetonitrile] |  |  | 125 | 145 |  | 
26 | C=C(C(=O)OCC)c1cc(C(=O)c2ccc(OC)cc2)sc1-c1ccc(Cl)cc1 [compound 187, ethyl 2-(2-(4-chlorophenyl)-5-(4-methoxybenzoyl)thiophen-3-yl)acrylate] |  |  | 152 | 120 |  | 
